Results: BindingDB's records for doi:10.1111/j.1432-1033.1992.tb17043.x (Universit&Eacute, 1992)
Non-standard residues stand in square brackets, D forms with d. Residues, ends and D or L forms follow the SMILES beside them. ξ: configuration not given here. Ile(3ξ) = CCC(C)[C@H](N)C(=O)O

Target: T1, Pituitary adenylate cyclase-activating polypeptide (Homo sapiens, UniProt P18509)
T1 sequence (P18509 whole entry): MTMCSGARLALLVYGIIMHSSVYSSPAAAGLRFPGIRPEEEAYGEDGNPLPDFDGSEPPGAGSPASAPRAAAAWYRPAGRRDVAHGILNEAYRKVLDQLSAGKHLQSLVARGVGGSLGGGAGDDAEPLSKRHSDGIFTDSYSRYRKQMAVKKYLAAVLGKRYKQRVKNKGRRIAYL

Ki [nM] | Molecule
1.5 | CSCC[C@H](NC(=O)[C@H](CCC(N)=O)NC(=O)[C@H](CCCCN)NC(=O)[C@H](CCCNC(=N)N)NC(=O)[C@H](Cc1ccc(O)cc1)NC(=O)[C@H](CCCNC(=N)N)NC(=O)[C@H](CO)NC(=O)[C@H](Cc1ccc(O)cc1)NC(=O)[C@H](CO)NC(=O)[C@H](CC(=O)O)NC(=O)[C@@H](NC(=O)[C@@H](N)Cc1ccccc1)[C@@H](C)O)C(=O)N[C@@H](C)C(=O)N[C@H](C(=O)N[C@@H](CCCCN)C(=O)N[C@@H](CCCCN)C(=O)N[C@@H](Cc1ccc(O)cc1)C(=O)N[C@@H](CC(C)C)C(=O)N[C@@H](C)C(=O)N[C@@H](C)C(=O)N[C@H](C(=O)N[C@@H](CC(C)C)C(=O)NCC(=O)N[C@@H](CCCCN)C(=O)N[C@@H](CCCNC(=N)N)C(=O)N[C@@H](Cc1ccc(O)cc1)C(=O)N[C@@H](CCCCN)C(=O)N[C@@H](CCC(N)=O)C(=O)N[C@@H](CCCNC(=N)N)C(=O)N[C@H](C(=O)N[C@@H](CCCCN)C(=O)N[C@@H](CC(N)=O)C(=O)N[C@@H](CCCCN)C(N)=O)C(C)C)C(C)C)C(C)C
1000 | CCC(C)[C@H](NC(=O)CNC(=O)[C@H](CC(=O)O)NC(=O)[C@@H](Cc1ccccc1)NC(=O)[C@H](Cc1cnc[nH]1)NC(C)=O)C(=O)N[C@@H](Cc1ccccc1)C(=O)N[C@H](C(=O)N[C@@H](CC(=O)O)C(=O)N[C@@H](CO)C(=O)N[C@@H](Cc1ccc(O)cc1)C(=O)N[C@@H](CO)C(=O)N[C@@H](CCCN=C(N)N)C(=O)N[C@@H](Cc1ccc(O)cc1)C(=O)N[C@@H](CCCN=C(N)N)C(=O)N[C@@H](CCCCN)C(=O)N[C@@H](CCC(N)=O)C(=O)N[C@@H](CCSC)C(=O)N[C@@H](C)C(=O)N[C@H](C(=O)N[C@@H](CCCCN)C(=O)N[C@@H](CCCCN)C(=O)N[C@@H](Cc1ccc(O)cc1)C(=O)N[C@@H](CC(C)C)C(=O)N[C@@H](C)C(=O)N[C@@H](C)C(=O)N[C@H](C(=O)N[C@@H](CC(C)C)C(N)=O)C(C)C)C(C)C)[C@@H](C)O (stereo partly specified) [[AcHis1,DPhe2]PACAP(1-27)]
10 | CCC(C)[C@H](NC(=O)CNC(=O)[C@H](CC(=O)O)NC(=O)[C@H](Cc1ccccc1)NC(=O)[C@@H](N)Cc1cnc[nH]1)C(=O)N[C@@H](Cc1ccccc1)C(=O)N[C@H](C(=O)N[C@@H](CC(=O)O)C(=O)N[C@@H](CO)C(=O)N[C@@H](Cc1ccc(O)cc1)C(=O)N[C@@H](CO)C(=O)N[C@@H](CCCN=C(N)N)C(=O)N[C@@H](Cc1ccc(O)cc1)C(=O)N[C@@H](CCCN=C(N)N)C(=O)N[C@@H](CCCCN)C(=O)N[C@@H](CCC(N)=O)C(=O)N[C@@H](CCSC)C(=O)N[C@@H](C)C(=O)N[C@H](C(=O)N[C@@H](CCCCN)C(=O)N[C@@H](CCCCN)C(=O)N[C@@H](Cc1ccc(O)cc1)C(=O)N[C@@H](CC(C)C)C(=O)N[C@@H](C)C(=O)N[C@@H](C)C(=O)N[C@H](C(=O)N[C@@H](CC(C)C)C(=O)NCC(=O)N[C@@H](CCCCN)C(=O)N[C@@H](CCCN=C(N)N)C(=O)N[C@@H](Cc1ccc(O)cc1)C(=O)N[C@@H](CCCCN)C(=O)N[C@@H](CCC(N)=O)C(=O)N[C@@H](CCCN=C(N)N)C(=O)N[C@H](C(=O)N[C@@H](CCCCN)C(=O)N[C@@H](CC(N)=O)C(=O)N[C@@H](CCCCN)C(N)=O)C(C)C)C(C)C)C(C)C)[C@@H](C)O (stereo partly specified) [[Phe2]PACAP(1-38)] (H-HFDG[Ile(3ξ)]FTDSYSRYRKQMAVKKYLAAVLGKRYKQRVKNK-NH2)
200 | H-TDSYSRYRKQMAVKKYLAAVL-NH2 [PACAP(6-27)]
10 | CC[C@H](C)[C@H](NC(=O)CNC(=O)[C@H](CC(=O)O)NC(=O)[C@@H](Cc1ccccc1)NC(=O)[C@H](Cc1cnc[nH]1)NC(C)=O)C(=O)N[C@@H](Cc1ccccc1)C(=O)N[C@H](C(=O)N[C@@H](CC(=O)O)C(=O)N[C@@H](CO)C(=O)N[C@@H](Cc1ccc(O)cc1)C(=O)N[C@@H](CO)C(=O)N[C@@H](CCCN=C(N)N)C(=O)N[C@@H](Cc1ccc(O)cc1)C(=O)N[C@@H](CCCN=C(N)N)C(=O)N[C@@H](CCCCN)C(=O)N[C@@H](CCC(N)=O)C(=O)N[C@@H](CCSC)C(=O)N[C@@H](C)C(=O)N[C@H](C(=O)N[C@@H](CCCCN)C(=O)N[C@@H](CCCCN)C(=O)N[C@@H](Cc1ccc(O)cc1)C(=O)N[C@@H](CC(C)C)C(=O)N[C@@H](C)C(=O)N[C@@H](C)C(=O)N[C@H](C(=O)N[C@@H](CC(C)C)C(=O)NCC(=O)N[C@@H](CCCCN)C(=O)N[C@@H](CCCN=C(N)N)C(=O)N[C@@H](Cc1ccc(O)cc1)C(=O)N[C@@H](CCCCN)C(=O)N[C@@H](CCC(N)=O)C(=O)N[C@@H](CCCN=C(N)N)C(=O)N[C@H](C(=O)N[C@@H](CCCCN)C(=O)N[C@@H](CC(N)=O)C(=O)N[C@@H](CCCCN)C(N)=O)C(C)C)C(C)C)C(C)C)[C@@H](C)O [[AcHis1,DPhe2]PACAP(1-38)]
5 | CCC(C)[C@H](NC(=O)CN)C(=O)N[C@@H](Cc1ccccc1)C(=O)N[C@H](C(=O)N[C@@H](CC(=O)O)C(=O)N[C@@H](CO)C(=O)N[C@@H](Cc1ccc(O)cc1)C(=O)N[C@@H](CO)C(=O)N[C@@H](CCCN=C(N)N)C(=O)N[C@@H](Cc1ccc(O)cc1)C(=O)N[C@@H](CCCN=C(N)N)C(=O)N[C@@H](CCCCN)C(=O)N[C@@H](CCC(N)=O)C(=O)N[C@@H](CCSC)C(=O)N[C@@H](C)C(=O)N[C@H](C(=O)N[C@@H](CCCCN)C(=O)N[C@@H](CCCCN)C(=O)N[C@@H](Cc1ccc(O)cc1)C(=O)N[C@@H](CC(C)C)C(=O)N[C@@H](C)C(=O)N[C@@H](C)C(=O)N[C@H](C(=O)N[C@@H](CC(C)C)C(=O)NCC(=O)N[C@@H](CCCCN)C(=O)N[C@@H](CCCN=C(N)N)C(=O)N[C@@H](Cc1ccc(O)cc1)C(=O)N[C@@H](CCCCN)C(=O)N[C@@H](CCC(N)=O)C(=O)N[C@@H](CCCN=C(N)N)C(=O)N[C@H](C(=O)N[C@@H](CCCCN)C(=O)N[C@@H](CC(N)=O)C(=O)N[C@@H](CCCCN)C(N)=O)C(C)C)C(C)C)C(C)C)[C@@H](C)O (stereo partly specified) [PACAP(4-38)] (H-G[Ile(3ξ)]FTDSYSRYRKQMAVKKYLAAVLGKRYKQRVKNK-NH2)
150 | CCC(C)[C@H](N)C(=O)N[C@@H](Cc1ccccc1)C(=O)N[C@H](C(=O)N[C@@H](CC(=O)O)C(=O)N[C@@H](CO)C(=O)N[C@@H](Cc1ccc(O)cc1)C(=O)N[C@@H](CO)C(=O)N[C@@H](CCCN=C(N)N)C(=O)N[C@@H](Cc1ccc(O)cc1)C(=O)N[C@@H](CCCN=C(N)N)C(=O)N[C@@H](CCCCN)C(=O)N[C@@H](CCC(N)=O)C(=O)N[C@@H](CCSC)C(=O)N[C@@H](C)C(=O)N[C@H](C(=O)N[C@@H](CCCCN)C(=O)N[C@@H](CCCCN)C(=O)N[C@@H](Cc1ccc(O)cc1)C(=O)N[C@@H](CC(C)C)C(=O)N[C@@H](C)C(=O)N[C@@H](C)C(=O)N[C@H](C(=O)N[C@@H](CC(C)C)C(N)=O)C(C)C)C(C)C)[C@@H](C)O (stereo partly specified) [PACAP(5-27)] (H-[Ile(3ξ)]FTDSYSRYRKQMAVKKYLAAVL-NH2)
200 | CCC(C)[C@H](NC(=O)CNC(=O)[C@@H](N)CC(=O)O)C(=O)N[C@@H](Cc1ccccc1)C(=O)N[C@H](C(=O)N[C@@H](CC(=O)O)C(=O)N[C@@H](CO)C(=O)N[C@@H](Cc1ccc(O)cc1)C(=O)N[C@@H](CO)C(=O)N[C@@H](CCCN=C(N)N)C(=O)N[C@@H](Cc1ccc(O)cc1)C(=O)N[C@@H](CCCN=C(N)N)C(=O)N[C@@H](CCCCN)C(=O)N[C@@H](CCC(N)=O)C(=O)N[C@@H](CCSC)C(=O)N[C@@H](C)C(=O)N[C@H](C(=O)N[C@@H](CCCCN)C(=O)N[C@@H](CCCCN)C(=O)N[C@@H](Cc1ccc(O)cc1)C(=O)N[C@@H](CC(C)C)C(=O)N[C@@H](C)C(=O)N[C@@H](C)C(=O)N[C@H](C(=O)N[C@@H](CC(C)C)C(N)=O)C(C)C)C(C)C)[C@@H](C)O (stereo partly specified) [PACAP(3-27)] (H-DG[Ile(3ξ)]FTDSYSRYRKQMAVKKYLAAVL-NH2)
10 | CCC(C)[C@H](NC(=O)CNC(=O)[C@H](CC(=O)O)NC(=O)[C@H](Cc1ccccc1)NC(=O)[C@H](Cc1cnc[nH]1)NC(C)=O)C(=O)N[C@@H](Cc1ccccc1)C(=O)N[C@H](C(=O)N[C@@H](CC(=O)O)C(=O)N[C@@H](CO)C(=O)N[C@@H](Cc1ccc(O)cc1)C(=O)N[C@@H](CO)C(=O)N[C@@H](CCCN=C(N)N)C(=O)N[C@@H](Cc1ccc(O)cc1)C(=O)N[C@@H](CCCN=C(N)N)C(=O)N[C@@H](CCCCN)C(=O)N[C@@H](CCC(N)=O)C(=O)N[C@@H](CCSC)C(=O)N[C@@H](C)C(=O)N[C@H](C(=O)N[C@@H](CCCCN)C(=O)N[C@@H](CCCCN)C(=O)N[C@@H](Cc1ccc(O)cc1)C(=O)N[C@@H](CC(C)C)C(=O)N[C@@H](C)C(=O)N[C@@H](C)C(=O)N[C@H](C(=O)N[C@@H](CC(C)C)C(=O)NCC(=O)N[C@@H](CCCCN)C(=O)N[C@@H](CCCN=C(N)N)C(=O)N[C@@H](Cc1ccc(O)cc1)C(=O)N[C@@H](CCCCN)C(=O)N[C@@H](CCC(N)=O)C(=O)N[C@@H](CCCN=C(N)N)C(=O)N[C@H](C(=O)N[C@@H](CCCCN)C(=O)N[C@@H](CC(N)=O)C(=O)N[C@@H](CCCCN)C(N)=O)C(C)C)C(C)C)C(C)C)[C@@H](C)O (stereo partly specified) [[AcHis1,Phe2]PACAP(1-38)]
60 | H-FTDSYSRYRKQMAVKKYLAAVL-NH2 [PACAP(5-27)]
100 | CCC(C)[C@H](NC(=O)CNC(=O)[C@H](CC(=O)O)NC(=O)[C@H](Cc1ccccc1)NC(=O)[C@H](Cc1cnc[nH]1)NC(C)=O)C(=O)N[C@@H](Cc1ccccc1)C(=O)N[C@H](C(=O)N[C@@H](CC(=O)O)C(=O)N[C@@H](CO)C(=O)N[C@@H](Cc1ccc(O)cc1)C(=O)N[C@@H](CO)C(=O)N[C@@H](CCCN=C(N)N)C(=O)N[C@@H](Cc1ccc(O)cc1)C(=O)N[C@@H](CCCN=C(N)N)C(=O)N[C@@H](CCCCN)C(=O)N[C@@H](CCC(N)=O)C(=O)N[C@@H](CCSC)C(=O)N[C@@H](C)C(=O)N[C@H](C(=O)N[C@@H](CCCCN)C(=O)N[C@@H](CCCCN)C(=O)N[C@@H](Cc1ccc(O)cc1)C(=O)N[C@@H](CC(C)C)C(=O)N[C@@H](C)C(=O)N[C@@H](C)C(=O)N[C@H](C(=O)N[C@@H](CC(C)C)C(N)=O)C(C)C)C(C)C)[C@@H](C)O (stereo partly specified) [[AcHis1,Phe2]PACAP(1-27)]
